# Reference: ChEMBL document CHEMBL1141688, “Design, synthesis and preliminary biological evaluation of new hydroxamate histone deacetylase inhibitors as potential antileukemic agents” (Bioorg Med Chem Lett, 2008)
# pIC50: −log10 of the molar value.
# Legend:
# [1] = tested on: NB-4; assay: Induction of apoptosis in human NB4 cells assessed as early apoptotic cells at 2.5 uM after 48 hrs using annexin V-fluos/propidium iodide staining by cytofluorimetric analysis; format: functional
# [2] = tested on: NB-4; assay: Induction of apoptosis in human NB4 cells assessed as late apoptotic cells at 2.5 uM after 48 hrs using annexin V-fluos/propidium iodide staining by cytofluorimetric analysis; format: functional
# [3] = tested on: NB-4; assay: Induction of apoptosis in human NB4 cells assessed as necrotic cells at 2.5 uM after 48 hrs using annexin V-fluos/propidium iodide staining by cytofluorimetric analysis; format: functional
# [4] = tested on: NB-4; assay: Induction of apoptosis in human NB4 cells assessed as viable cells at 2.5 uM after 48 hrs using annexin V-fluos/propidium iodide staining by cytofluorimetric analysis; format: functional; details: NB-4, 48 h, read-out: Activity
# [5] = tested on: NB-4; assay: Antiproliferative activity against human NB4 cells after 48 hrs; format: functional, cell-based; details: NB-4, 48 h
# [6] = tested on: NB-4; assay: Induction of apoptosis in human NB4 cells assessed as late apoptotic cells at 5 uM after 48 hrs using annexin V-fluos/propidium iodide staining by cytofluorimetric analysis; format: functional
# [7] = tested on: NB-4; assay: Induction of apoptosis in human NB4 cells assessed as early apoptotic cells at 5 uM after 48 hrs using annexin V-fluos/propidium iodide staining by cytofluorimetric analysis; format: functional
# [8] = tested on: NB-4; assay: Induction of apoptosis in human NB4 cells assessed as necrotic cells at 5 uM after 48 hrs using annexin V-fluos/propidium iodide staining by cytofluorimetric analysis; format: functional
# [9] = tested on: NB-4; assay: Induction of apoptosis in human NB4 cells assessed as viable cells at 5 uM after 48 hrs using annexin V-fluos/propidium iodide staining by cytofluorimetric analysis; format: functional; details: NB-4, 48 h, read-out: Activity
smiles,measurement,setting,value
C[C@H]1N=C(c2ccccc2)c2cc(C#CCCCC(=O)NO)ccc2N(C)C1=O,Activity,[1],1.5%
same,Activity,[2],8.3%
same,Activity,[3],0.4%
same,viability at 2.5 µM,[4],89.8%
same,pIC50,[5],5.32
CN1C(=O)CN=C(c2ccccc2)c2cc(C#CCCCC(=O)NO)ccc21,pIC50,[5],6.21
C[C@@H]1N=C(c2ccccc2)c2cc(NC(=O)CCCCCCC(=O)NO)ccc2N(C)C1=O,pIC50,[5],5.23
C[C@H]1N=C(c2ccccc2)c2cc(NC(=O)CCCCCCC(=O)NO)ccc2N(C)C1=O,pIC50,[5],5.43
CN1C(=O)CN=C(c2ccccc2)c2cc(NC(=O)CCCCCCC(=O)NO)ccc21,pIC50,[5],5.60
C[C@@H]1N=C(c2ccccc2)c2cc(C#CCCCC(=O)NO)ccc2N(C)C1=O,Activity,[1],30.8%
same,Activity,[2],56.6%
same,Activity,[3],0.6%
same,viability at 2.5 µM,[4],12%
same,pIC50,[5],6.21
CC1N=C(c2ccccc2)c2cc(NC(=O)CCCCCCC(=O)NO)ccc2N(C)C1=O (racemic),pIC50,[5],5.39
CC1N=C(c2ccccc2)c2cc(C#CCCCC(=O)NO)ccc2N(C)C1=O (racemic),Activity,[6],54.1%
same,Activity,[7],35.6%
same,Activity,[8],1.7%
same,viability at 5 µM,[9],8.6%
same,pIC50,[5],5.90
